Measurements from PubChem BioAssay AID1918957 (Molecular Pharmacology Branch, DTP, NCI, 2023).
Where “and” joins values, the source holds several entries; their conditions need not be identical. Equal values may be shown once.

Test system: NCI-H1876 complex spheroid viability
Test: Anticancer human tumor NCI-H1876 cell line growth inhibition [LSD1];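 further: spheroids exposed to compounds for one week before readout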;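 on viability, T/C: 100% = DMSO vehicle-treated spheroids so lower means fewer viable cells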
Settings: for viability, T/C: stronger effect = lower value
Summary of the method: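 Drug combinations with the LSD1 inhibitor iadademstat tested on tumor cells co-cultured as spheroids with endothelial cells and mesenchymal stem cells. Concentrations descended in half-log increments from clinical Cmax or 10 microM.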

[1] = curve of first compound, second compound 0.1 µM
[2] = curve of first compound, second compound 0.316 µM
[3] = curve of first compound, second compound 1 µM
[4] = curve of first compound, second compound 3.16 µM
[5] = curve of first compound, second compound 10 µM
[6] = second compound 0.1 µM, first compound 0.00316 µM
[7] = second compound 0.1 µM, first compound 0.01 µM
[8] = second compound 0.1 µM, first compound 0.0316 µM
[9] = second compound 0.1 µM, first compound 0.1 µM
[10] = second compound 0.316 µM, first compound 0.00316 µM
[11] = second compound 0.316 µM, first compound 0.01 µM
[12] = second compound 0.316 µM, first compound 0.0316 µM
[13] = second compound 0.316 µM, first compound 0.1 µM
[14] = second compound 1 µM, first compound 0.00316 µM
[15] = second compound 1 µM, first compound 0.01 µM
[16] = second compound 1 µM, first compound 0.0316 µM
[17] = second compound 1 µM, first compound 0.1 µM
[18] = second compound 3.16 µM, first compound 0.00316 µM
[19] = second compound 3.16 µM, first compound 0.01 µM
[20] = second compound 3.16 µM, first compound 0.0316 µM
[21] = second compound 3.16 µM, first compound 0.1 µM
[22] = second compound 10 µM, first compound 0.00316 µM
[23] = second compound 10 µM, first compound 0.01 µM
[24] = second compound 10 µM, first compound 0.0316 µM
[25] = second compound 10 µM, first compound 0.1 µM
[26] = second compound 0.1 µM, first compound 0.00949 µM
[27] = second compound 0.1 µM, first compound 0.03 µM
[28] = second compound 0.1 µM, first compound 0.0949 µM
[29] = second compound 0.1 µM, first compound 0.3 µM
[30] = second compound 0.316 µM, first compound 0.00949 µM
[31] = second compound 0.316 µM, first compound 0.03 µM
[32] = second compound 0.316 µM, first compound 0.0949 µM
[33] = second compound 0.316 µM, first compound 0.3 µM
[34] = second compound 1 µM, first compound 0.00949 µM
[35] = second compound 1 µM, first compound 0.03 µM
[36] = second compound 1 µM, first compound 0.0949 µM
[37] = second compound 1 µM, first compound 0.3 µM
[38] = second compound 3.16 µM, first compound 0.00949 µM
[39] = second compound 3.16 µM, first compound 0.03 µM
[40] = second compound 3.16 µM, first compound 0.0949 µM
[41] = second compound 3.16 µM, first compound 0.3 µM
[42] = second compound 10 µM, first compound 0.00949 µM
[43] = second compound 10 µM, first compound 0.03 µM
[44] = second compound 10 µM, first compound 0.0949 µM
[45] = second compound 10 µM, first compound 0.3 µM

`Nc1ncn(C2CC(O)C(CO)O2)c(=O)n1` (stereo unspecified) + NC1CCC(NC2CC2c2ccccc2)CC1 was tested, and the IC50 [1] was over 1000 nM, the IC50 [2] was over 1000 nM and the IC50 [3] was over 1000 nM. For the same compound, the IC50 [4] was over 1000 nM, the IC50 [5] was over 1000 nM and the viability, T/C [6] was 104%. For the same compound, the viability, T/C [7] was 109%, the viability, T/C [8] was 99.7% and the viability, T/C [9] was 97.5%. It also gave a viability, T/C (second compound 0.1 µM, first compound 0.316 µM) of 98.7%, a viability, T/C (second compound 0.1 µM, first compound 1 µM) of 96.2% and a viability, T/C [10] of 103%. For the same compound, the viability, T/C [11] was 98.8%, the viability, T/C [12] was 99.8% and the viability, T/C [13] was 98.5%. For the same compound, the viability, T/C (second compound 0.316 µM, first compound 0.316 µM) was 92.5%, the viability, T/C (second compound 0.316 µM, first compound 1 µM) was 86.6% and the viability, T/C [14] was 102%. For the same compound, the viability, T/C [15] was 109%, the viability, T/C [16] was 100% and the viability, T/C [17] was 97.9%. For the same compound, the viability, T/C (second compound 1 µM, first compound 0.316 µM) was 93.5%, the viability, T/C (second compound 1 µM, first compound 1 µM) was 92.2% and the viability, T/C [18] was 98.6%. For the same compound, the viability, T/C [19] was 104%, the viability, T/C [20] was 102% and the viability, T/C [21] was 97.6%. It also gave a viability, T/C (second compound 3.16 µM, first compound 0.316 µM) of 92.6%, a viability, T/C (second compound 3.16 µM, first compound 1 µM) of 95.8% and a viability, T/C [22] of 99.3%. The viability, T/C [23] was 100%, the viability, T/C [24] was 96.7% and the viability, T/C [25] was 106%. For the same compound, the viability, T/C (second compound 10 µM, first compound 0.316 µM) was 92.8% and the viability, T/C (second compound 10 µM, first compound 1 µM) was 97.1%.
For `CCc1c2c(nc3ccc(O)cc13)-c1cc3c(c(=O)n1C2)COC(=O)[C@]3(O)CC` + NC1CC1c1ccc(-c2cccc(O)c2)cc1, the IC50 [1] was under 0.949 nM, the IC50 [2] was under 0.949 nM and the IC50 [3] was under 0.949 nM. The IC50 [4] was under 0.949 nM, the IC50 [5] was under 0.949 nM and the viability, T/C (second compound 0.1 µM, first compound 0.000949 µM) was 5.07%. The viability, T/C (second compound 0.1 µM, first compound 0.003 µM) was 3.61%, the viability, T/C [26] was 1.59% and the viability, T/C [27] was 0.3%. It also gave a viability, T/C [28] of 0.22%, a viability, T/C [29] of 0.31% and a viability, T/C (second compound 0.316 µM, first compound 0.000949 µM) of 5.4%. It also gave a viability, T/C (second compound 0.316 µM, first compound 0.003 µM) of 3.71%, a viability, T/C [30] of 1.52% and a viability, T/C [31] of 0.19%. The viability, T/C [32] was 0.15%, the viability, T/C [33] was 0.25% and the viability, T/C (second compound 1 µM, first compound 0.000949 µM) was 5.18%. The viability, T/C (second compound 1 µM, first compound 0.003 µM) was 3.15%, the viability, T/C [34] was 1.5% and the viability, T/C [35] was 0.39%. The viability, T/C [36] was 0.6%, the viability, T/C [37] was 0.3% and the viability, T/C (second compound 3.16 µM, first compound 0.000949 µM) was 5.73%. The viability, T/C (second compound 3.16 µM, first compound 0.003 µM) was 3.61%, the viability, T/C [38] was 1.99% and the viability, T/C [39] was 0.43%. The viability, T/C [40] was 0.32%, the viability, T/C [41] was 0.32% and the viability, T/C (second compound 10 µM, first compound 0.000949 µM) was 6.65%. It also gave a viability, T/C (second compound 10 µM, first compound 0.003 µM) of 4.79%, a viability, T/C [42] of 3.56% and a viability, T/C [43] of 0.81%. The viability, T/C [44] was 0.56% and the viability, T/C [45] was 0.86%.
`Nc1ccccc1NC(=O)c1ccc(CNC(=O)OCc2cccnc2)cc1` + NC1CC1c1ccc(-c2cccc(O)c2)cc1 gave an IC50 [1] of 81 nM, an IC50 [2] of 66.8 nM and an IC50 [3] of 61.5 nM. For the same compound, the IC50 [4] was 65.2 nM, the IC50 [5] was 68.2 nM and the viability, T/C [26] was 91.1%. The viability, T/C [27] was 88.8%, the viability, T/C [28] was 43.1% and the viability, T/C [29] was 9.94%. It also gave a viability, T/C (second compound 0.1 µM, first compound 0.949 µM) of 2.94%, a viability, T/C (second compound 0.1 µM, first compound 3 µM) of 0.49% and a viability, T/C [30] of 83.6%. The viability, T/C [31] was 71.9%, the viability, T/C [32] was 40.9% and the viability, T/C [33] was 9.16%. It also gave a viability, T/C (second compound 0.316 µM, first compound 0.949 µM) of 3.03%, a viability, T/C (second compound 0.316 µM, first compound 3 µM) of 0.41% and a viability, T/C [34] of 85.1%. The viability, T/C [35] was 75.5%, the viability, T/C [36] was 34.4% and the viability, T/C [37] was 8.61%. The viability, T/C (second compound 1 µM, first compound 0.949 µM) was 2.73%, the viability, T/C (second compound 1 µM, first compound 3 µM) was 0.38% and the viability, T/C [38] was 84.6%. It also gave a viability, T/C [39] of 76%, a viability, T/C [40] of 37.3% and a viability, T/C [41] of 8.61%. For the same compound, the viability, T/C (second compound 3.16 µM, first compound 0.949 µM) was 2.69%, the viability, T/C (second compound 3.16 µM, first compound 3 µM) was 0.45% and the viability, T/C [42] was 78.6%. For the same compound, the viability, T/C [43] was 70.5%, the viability, T/C [44] was 41.5% and the viability, T/C [45] was 13.3%. The viability, T/C (second compound 10 µM, first compound 0.949 µM) was 2.64% and the viability, T/C (second compound 10 µM, first compound 3 µM) was 0.52%.
For `Cn1ncnc1C1c2n[nH]c(=O)c3cc(F)cc(c23)NC1c1ccc(F)cc1` (stereo unspecified), the viability, T/C (compound 0.000316 µM) was 100% and 104%, the viability, T/C (compound 0.001 µM) was 95% and 107% and the viability, T/C (compound 0.00316 µM) was 107% and 100%. For the same compound, the viability, T/C (compound 0.01 µM) was 107% and 100%, the viability, T/C (compound 0.0316 µM) was 94.9% and 93.5% and the viability, T/C (compound 0.1 µM) was 93.8% and 79.9%. The IC50 (curve of compound) was over 100 nM.
With `COc1cc(C2c3cc4c(cc3C(OC3OC5COC(C)OC5C(O)C3O)C3COC(=O)C23)OCO4)cc(OC)c1O` (stereo unspecified) the viability, T/C (compound 0.00949 µM) was 85.4% and 93.8%, the viability, T/C (compound 0.03 µM) was 69.1% and 57.3% and the viability, T/C (compound 0.0949 µM) was 30.5% and 20.9%. The viability, T/C (compound 0.3 µM) was 32.1% and 11.1%, the viability, T/C (compound 0.949 µM) was 26.4% and 8.9% and the viability, T/C (compound 3 µM) was 11.7% and 9%. The IC50 (curve of compound) was 54 nM and 37.8 nM.
With `CC(C)CC(NC(=O)C(Cc1ccccc1)NC(=O)c1cnccn1)B(O)O` (stereo unspecified) + NC1CCC(NC2CC2c2ccccc2)CC1 the IC50 [1] was 0.602 nM, the IC50 [2] was 0.563 nM and the IC50 [3] was 0.555 nM. The IC50 [4] was 0.449 nM, the IC50 [5] was 0.485 nM and the viability, T/C (second compound 0.1 µM, first compound 0.000316 µM) was 92.6%. It also gave a viability, T/C (second compound 0.1 µM, first compound 0.001 µM) of 16.3%, a viability, T/C [6] of 31.7% and a viability, T/C [7] of 14.5%. For the same compound, the viability, T/C [8] was 0.17%, the viability, T/C [9] was 3.63% and the viability, T/C (second compound 0.316 µM, first compound 0.000316 µM) was 89.3%. It also gave a viability, T/C (second compound 0.316 µM, first compound 0.001 µM) of 9.55%, a viability, T/C [10] of 13.6% and a viability, T/C [11] of 17.3%. It also gave a viability, T/C [12] of 10.1%, a viability, T/C [13] of 3.61% and a viability, T/C (second compound 1 µM, first compound 0.000316 µM) of 82%. The viability, T/C (second compound 1 µM, first compound 0.001 µM) was 16.4%, the viability, T/C [14] was 13.8% and the viability, T/C [15] was 13.1%. For the same compound, the viability, T/C [16] was 7.48%, the viability, T/C [17] was 11.4% and the viability, T/C (second compound 3.16 µM, first compound 0.000316 µM) was 70%. The viability, T/C (second compound 3.16 µM, first compound 0.001 µM) was 0.39%, the viability, T/C [18] was 9.3% and the viability, T/C [19] was 3.65%. The viability, T/C [20] was 0.15%, the viability, T/C [21] was 10.3% and the viability, T/C (second compound 10 µM, first compound 0.000316 µM) was 74%. The viability, T/C (second compound 10 µM, first compound 0.001 µM) was 9.39%, the viability, T/C [22] was 7.81% and the viability, T/C [23] was 7.31%. For the same compound, the viability, T/C [24] was 3.77% and the viability, T/C [25] was 12.5%.
`O=C(c1cc(Cc2n[nH]c(=O)c3ccccc23)ccc1F)N1CCN(C(=O)C2CC2)CC1` was tested, and the viability, T/C (compound 0.0316 µM) was 99.1% and 93.9%, the viability, T/C (compound 0.1 µM) was 96% and 96.3% and the viability, T/C (compound 0.316 µM) was 91.3% and 97.4%. The viability, T/C (compound 1 µM) was 85.9% and 91.3%, the viability, T/C (compound 3.16 µM) was 65.4% and 68.3% and the viability, T/C (compound 10 µM) was 33.4% and 36.2%. For the same compound, the IC50 (curve of compound) was 5540 nM and 6100 nM.
